Test results reported in article PMC12471299, “Secondary Metabolites of the Marine Sponge-Derived Fungus Aspergillus subramanianii 1901NT-1.40.2 and Their Antimicrobial and Anticancer Activities” (Marine Drugs, 2025).
≈ marks a conversion by molar mass, not a printed value. Read-outs that look alike come from different tables or passages of the source.

Tests used:
E. coli = system: E. coli; parameters: method as in PMID 28498358; conditions: cited from earlier work
H9c2 cardiomyocytes = assay: Cell viability assay (MTT); format: cell-based, rat
Description: (§1) Rat cardiomyocyte H9c2 cells were kindly provided by Prof. Dr. Gunhild von Amsberg from the Martini-Klinik Prostate Cancer Center, University Hospital Hamburg-Eppendorf, Hamburg, Germany. The human HaCaT keratinocyte cell line was kindly provided by Prof. N. Fusenig (Cancer Research Centre, Heidelberg, Germany). Non-cancerous human breast epithelial MCF-10A cells were kindly provided by Dr. Irina Zhitnyak (N. N. Blokhin National Medical Research Center of Oncology, Moscow, Russia). Human breast cancer MCF-7 HTB-22 and MDA-MB-231 cells were obtained from the ATTC (Manassas, VA, USA).
(§2) H9c2 and HaCaT cells were cultured in DMEM with 10% fetal bovine serum and 1% penicillin/streptomycin (BioloT, St. Petersburg, Russia). MCF-7 and MDA-MB-231 cells were cultured in MEM (BioloT, St. Petersburg, Russia) with 10% fetal bovine serum (FBS) and 1% penicillin/streptomycin (BioloT, St. Petersburg, Russia). MCF 10A cells were cultured in DMEM F12 medium (BioloT, St. Petersburg, Russia) supplemented with 20% FBS, 20 ng/mL hrEGF (Sci-Store, Moscow, Russia), and 1% penicillin/streptomycin (BioloT, St. Petersburg, Russia). All cells were cultured at 37 °C in a humidified atmosphere containing 5% CO2.
(§3) H9c2 cells were seeded at a concentration of 3 × 10^3 cells/well. MCF-10A, MCF-7, and MDA-MB-231 cells were seeded at 5 × 10^3 cells/well, and HaCaT cells were seeded at 1 × 10^4 cells/well. The experiments were initiated after 24 h.
(§4) Compounds at concentrations up to 100 µM were added to the wells for 24h or 48 h, and the viability of the cells was measured using an MTT (3-(4,5-dimethylthiazol-2-yl)-2,5-diphenyltetrazolium bromide) assay, which was performed according to the manufacturer’s instructions (Sigma-Aldrich, Munich, Germany). […] DMSO was used as a control. The results are presented as percentages of the control data.

[1] = Cell viability assay (MTT); format: cell-based, rat; conditions: rat, H9c2 cardiomyocytes, read-out: Cytotoxicity IC50
Description: as §1, §2, §3, §4

[2] = system: Staphylococcus aureus ATCC 21027; assay: Biofilm formation assay (MTT); format: cell-based; conditions: S. aureus
Procedure: (§5) The Gram-positive bacterial Staphylococcus aureus ATCC 21027, Gram-negative bacterial Escherichia coli VKPM (B-7935), and yeast-like fungal Candida albicans KMM 455 strains were fermented on solid medium Mueller Hinton broth with agar (16.0 g/L) in a Petri dish at 37 °C for 24 h. The antimicrobial activity of the compound was tested at concentrations ranging from 100 µM and lower. The effect of the compound on bacterial growth was estimated as described by. Gentamicin and amphotericin B were used as positive controls against S. aureus, E. coli, and C. albicans, and a 1% dimethyl sulfoxide (DMSO) solution in PBS was used as a negative control. The optical density of the bacterial suspension after 18 h was measured at λ = 620 nm. The effect of the compound on biofilm formation for 18 h was tested using MTT reagent (Sigma-Aldrich, St. Louis, MO, USA) in accordance with. The optical density of the obtained solution was measured at λ = 570 nm. A Multiskan FS spectrophotometer (Thermo Scientific Inc., Beverly, MA, USA) was used for both assays. The results were calculated as percentages of the control data and presented as minimal concentrations reduced by 50% of growth or biofilm formation (MIC50).

[3] = system: Escherichia coli VKPM (B-7935); assay: Biofilm formation assay (MTT); format: cell-based; conditions: E. coli
Procedure: as §5

Candida albicans KMM 455 [4] = assay: Biofilm formation assay (MTT); format: cell-based; conditions: C. albicans
Procedure: as §5

[5] = system: Staphylococcus aureus ATCC 21027; assay: Antimicrobial assay, growth inhibition (optical density); format: cell-based; conditions: Staphylococcus aureus, ATCC21027; S. aureus; read-out: total inhibition (MIC100) of growth
Procedure: as §5

[6] = system: Escherichia coli VKPM (B-7935); assay: as above; format: cell-based; conditions: Escherichia coli; E. coli; read-out: total inhibition (MIC100) of growth
Procedure: as §5

Candida albicans KMM 455 [7] = assay: as above; format: cell-based; conditions: Candida albicans, C. albicans
Procedure: as §5

[8] = system: MCF-10A breast epithelial cells; assay: Cell viability assay (MTT); format: cell-based, human; conditions: MCF10A
Description: as §1, §2, §3, §4

[9] = system: MCF-7 breast cancer cells; assay: Cell viability assay (MTT); format: cell-based, human
Description: as §1, §2, §3, §4

HaCaT keratinocytes = assay: Cell viability assay (MTT); format: cell-based, human
Description: as §1, §2, §3, §4

[10] = system: MDA-MB-231 breast cancer cells; assay: Cell viability assay (MTT); format: cell-based, human
Description: as §1, §2, §3, §4

[11] = Cell viability assay (MTT); format: cell-based, human; conditions: human, read-out: Cytotoxicity IC50
Description: as §1, §2, §3, §4

C=C(C)C1CCC23C(O)CCC(C)C2(C)CCC(C)C3C1c1c[nH]c2ccccc12 (stereo not drawn) [Compound 5, 10,23-dihydro-24,25-dehydroaflavinine]
MIC50 (E. coli): 2.0 µg/mL (≈ 4.93 µM) | cell viability (H9c2 cardiomyocytes; H9c2, 24 h, 1.0 µM): 101.9 ± 2.9 % of control | cell viability (H9c2 cardiomyocytes; H9c2, 24 h, 10.0 µM): 50.5 ± 1.8 % of control | cell viability (H9c2 cardiomyocytes; H9c2, 24 h, 100.0 µM): 33.6 ± 0.3 % of control | cell viability (H9c2 cardiomyocytes; H9c2, 48 h, 1.0 µM): 105.6 ± 3.4 % of control | cell viability (H9c2 cardiomyocytes; H9c2, 48 h, 10.0 µM): 94.0 ± 3.0 % of control | cell viability (H9c2 cardiomyocytes; H9c2, 48 h, 100.0 µM): 10.1 ± 0.2 % of control | IC50 at 24 h ([1]; H9c2, 24 h): 9.8 ± 1.3 µM | IC50 at 48 h ([1]; H9c2, 48 h): 57.2 ± 3 µM | MIC100 of biofilm formation [2]: 10.45 ± 0.96 µM | MIC100 of biofilm formation [3]: 23.08 ± 2.00 µM | MIC100 of biofilm formation (Candida albicans KMM 455 [4]): 12.01 ± 1.01 µM | MIC [5]: 6.85 ± 0.53 µM (≈ 2.78 µg/mL) | MIC [6]: 12.4 ± 1.02 µM (≈ 5.05 µg/mL) | MIC50 (Candida albicans KMM 455 [7]; KMM455, 18 h, 18 h): 7 to 10 µM (≈ 2.84 to 4.06 µg/mL) | MIC (Candida albicans KMM 455 [7]; KMM455, read-out: total inhibition (MIC100) of growth): 11.5 ± 0.9 µM (≈ 4.66 µg/mL) | cell viability ([8]; 24 h, 1.0 µM): 101.7 ± 4.4 % of control | cell viability ([8]; 24 h, 10.0 µM): 95.4 ± 2.3 % of control | cell viability ([8]; 24 h, 100.0 µM): 16.1 ± 8.6 % of control | cell viability ([8]; 48 h, 1.0 µM): 92.0 ± 0.9 % of control | cell viability ([8]; 48 h, 10.0 µM): 93.9 ± 6.4 % of control | cell viability ([8]; 48 h, 100.0 µM): 9.9 ± 0.2 % of control | cell viability ([9]; MCF-7, 24 h, 1.0 µM): 100.5 ± 0.9 % of control | cell viability ([9]; MCF-7, 24 h, 10.0 µM): 97.0 ± 2.6 % of control | cell viability ([9]; MCF-7, 24 h, 100.0 µM): 10.0 ± 1.0 % of control | cell viability ([9]; MCF-7, 48 h, 1.0 µM): 78.5 ± 9.9 % of control | cell viability ([9]; MCF-7, 48 h, 10.0 µM): 81.6 ± 3.3 % of control | cell viability ([9]; MCF-7, 48 h, 100.0 µM): 21.2 ± 0.1 % of control | cell viability (HaCaT keratinocytes; 24 h, 1.0 µM): 92.3 ± 5.0 % of control | cell viability (HaCaT keratinocytes; 24 h, 10.0 µM): 88.3 ± 8.6 % of control | cell viability (HaCaT keratinocytes; 24 h, 100.0 µM): 7.8 ± 0.3 % of control | cell viability (HaCaT keratinocytes; 48 h, 1.0 µM): 72.2 ± 4.3 % of control | cell viability (HaCaT keratinocytes; 48 h, 10.0 µM): 56.8 ± 4.8 % of control | cell viability (HaCaT keratinocytes; 48 h, 100.0 µM): 16.8 ± 0.2 % of control | cell viability ([10]; MDA-MB-231, 24 h, 1.0 µM): 96.3 ± 7.5 % of control | cell viability ([10]; MDA-MB-231, 24 h, 10.0 µM): 91.3 ± 6.1 % of control | cell viability ([10]; MDA-MB-231, 24 h, 100.0 µM): 21.1 ± 0.9 % of control | cell viability ([10]; MDA-MB-231, 48 h, 1.0 µM): 103.2 ± 2.4 % of control | cell viability ([10]; MDA-MB-231, 48 h, 10.0 µM): 102.3 ± 4.1 % of control | cell viability ([10]; MDA-MB-231, 48 h, 100.0 µM): 10.6 ± 0.2 % of control | IC50 at 24 h ([11]; HaCaT keratinocytes, 24 h): 52.8 ± 1.1 µM | IC50 at 48 h ([11]; HaCaT keratinocytes, 48 h): 25.3 ± 0.8 µM | IC50 at 24 h ([11]; MCF-7 breast cancer cells, MCF-7, 24 h): 58.6 ± 4.2 µM | IC50 at 48 h ([11]; MCF-7 breast cancer cells, MCF-7, 48 h): 53.5 ± 1.1 µM | IC50 at 24 h ([11]; MCF-10A breast epithelial cells, MCF10A, 24 h): 61.5 ± 1.3 µM | IC50 at 48 h ([11]; MCF-10A breast epithelial cells, MCF10A, 48 h): 57.1 ± 2.8 µM | IC50 at 24 h ([11]; MDA-MB-231 breast cancer cells, MDA-MB-231, 24 h): 62.9 ± 3.1 µM | IC50 at 48 h ([11]; MDA-MB-231 breast cancer cells, MDA-MB-231, 48 h): 61.3 ± 2.1 µM
